Data: US8476266B2, “Phenylacetic acid compound” (Ono Pharmaceutical Co., Ltd., priority 2007, dated 2013)

What was measured:
DP receptor = target: T1, DP receptor (Homo sapiens, UniProt Q13258); experiment: Measurement of DP receptor antagonistic activity using human platelet-rich plasma (PRP); inhibition of PGD2-stimulated cAMP production; assay type: cell-based; conditions: for IC50: human PRP, 3 μmol/L PGD2 stimulation; for binding activity against the DP receptor compared with the non-substituted compound (Comparative compound 1): in words
T1 construct: Blood was collected from the cubital vein of a healthy adult; endogenous in cells; host or cells: human platelets (platelet-rich plasma of a healthy adult donor)
T1 sequence (Q13258 1-359): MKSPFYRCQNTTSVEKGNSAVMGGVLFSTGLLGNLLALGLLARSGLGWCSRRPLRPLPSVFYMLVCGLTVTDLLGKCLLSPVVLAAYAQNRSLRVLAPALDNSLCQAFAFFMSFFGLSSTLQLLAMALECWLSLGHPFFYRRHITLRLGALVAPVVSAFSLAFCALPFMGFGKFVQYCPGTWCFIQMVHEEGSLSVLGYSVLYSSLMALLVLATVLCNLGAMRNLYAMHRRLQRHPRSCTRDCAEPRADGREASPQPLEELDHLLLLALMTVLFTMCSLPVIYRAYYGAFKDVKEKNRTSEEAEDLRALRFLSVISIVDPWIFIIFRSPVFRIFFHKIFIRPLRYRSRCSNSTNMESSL
Protocol: The collected blood was subjected to centrifugal separation at 100 G, at room temperature for 15 minutes to obtain PRP in the upper layer. EDTA was added to the obtained PRP so that the final concentration thereof to be about 10 mmol/L. The PRP was subjected to centrifugal separation at 1500 G, at room temperature for 15 minutes to obtain supernatant platelet poor plasma (PPP). After the obtained platelet pellets were suspended, the suspension was diluted with PPP so that the platelet density to be adjusted to 5.0×10^5/μL. To the obtained platelet suspension, 3-isobutyl-1-methylxanthine and prostanoid EP3 receptor antagonist were added so that the final concentrations thereof to be 8 mmol/L and 1 μmol/L, respectively.
297 μL of the prepared PRP was dispensed to each test tube, followed by subjecting to incubation at 37° C. for 5 minutes. After adding 1.5 μL of DMSO or a variety of concentrations of the compound of the present invention, 10 minutes of incubation was carried out at 37° C. 1.5 μL, of DMSO or PGD2 (final concentration: 3 μmol/L) was added thereto to initiate the reaction. After 15 minutes of incubation was carried out at 37° C., […] of ice-cooled 10% trichloroacetic acid (TCA) was added thereto to terminate the reaction. The TCA-treated sample was subjected to centrifugal separation at 15,000 G for 3 minutes at 4° C. The concentration of thus obtained supernatant cAMP was measured by enzyme immunoassay using cAMP EIA system (Amersham plc). 300 μL of the supernatant obtained above was mixed with 600 μL, of a solution of 0.5 mol/L tri-n-octylamine in chloroform. After extracting TCA in the organic layer, the cAMP content in the water layer sample was measured according to the method described in cAMP assay kit.

Human CYP3A4 = target: T2, Human CYP3A4 (Homo sapiens, UniProt P08684); experiment: Measurement of drug-metabolizing enzyme inhibitory activity (human CYP3A4 inhibitory effect), CYP3A4 expression system microsome, 7-BQ substrate; assay type: in vitro ADME; conditions: 7-benzyloxyquinoline substrate, 37° C., 30 minutes
T2 construct: purchased BD Gentest
Protocol: A solution of the test compound having a concentration five hundred times more than the evaluation concentration in ethanol, or ethanol was 125-fold diluted by water. 50 μL of the test compound solution or the ethanol solution (control) was added with CYP3A4 substrate (7-benzyloxyquinoline (7-BQ), 40 μmol/L), magnesium chloride solution (5 mmol/L), and 100 μL, of 200 mM potassium phosphate buffer solution (pH 7.4) containing CYP3A4 expression system microsome (BD Gentest, 0.25 mg/mL), and preincubated at 37° C. for 10 minutes, then added with 50 μL, of reduced nicotinamide adenine dinucleotide phosphate (NADPH, final concentration 1 mmol/L) and incubated at 37° C. for 30 minutes. Immediately after the addition of NADPH, and after incubation, the fluorescence intensity was measured for 7-hydroxyquinoline which is a metabolite of the substrate (excitation wavelength 409 nm, emission wavelength 530 nm). The inhibition ratio against the control was calculated by the equation below. Inhibition rate(%)=[1-{(fluorescence intensity of the test compound after incubation−fluorescence intensity of the test compound immediately after addition of NADPH)/(fluorescence intensity of control after incubation−fluorescence intensity of control immediately after the addition of NADPH)}]×100.
IC50 was calculated from the equation below. IC50(μmol/L)=(50−(D×A−C×B)/(D−C))/((B−A)/(D−C)) • A: Highest inhibition rate (%) which is less than 50%. • B: Lowest inhibition rate (%) which is more than 50%. • C: Concentration (μmol/L) of the test compound when the inhibition rate is A. • D: Concentration (μmol/L) of the test compound when the inhibition rate is B.

[1] = target: T3, prostanoid receptor subtype (human EP2) (Homo sapiens, UniProt P43116); experiment: Receptor binding experiment using prostanoid receptor subtype expressing cell (3H-PGE2, CHO cell membrane); conditions: 3H-PGE2 2.5 nM, read-out: Ki, EP2 receptor binding (3H-PGE2 binding inhibition)
T3 construct: expressed in transfected cells; host or cells: CHO cells
Protocol: According to the method of Sugimoto et. al. (J. Biol. Chem. 267, 6463-6466 (1992)), CHO cells in which prostanoid receptor subtype (human EP2) was expressed were prepared to obtain membrane preparation.
A reaction solution (200 μl) containing membrane fraction preparation (0.5 mg/ml) and ^3H-PGE2 was incubated at room temperature for one hour. The reaction was terminated by ice-cooled buffer (3 ml), bound ^3H-PGE2 was trapped on a glass filter (GF/B) by suction filtration at reduced pressure, and bound radioactivity was measured by a liquid scintillator.
The Kd value was calculated from Scatchard plots [Ann. N.Y. Acad. Sci. 51, 660 (1949)]. Nonspecific binding was determined as a bond in the presence of excessive amount (10 μM) of unlabeled PGE2. The measurement of ^3H-PGE2 binding inhibitory effect by the compound of the present invention was carried out by adding ^3H-PGE2 (2.5 nM) and the compound of the present invention at a variety of concentrations. Note that all reactions used the following buffer.
Buffer: potassium phosphate (10 mM, pH 6.0), EDTA (1 mM), MgCl2 (10 mM), NaCl (0.1 M).
Dissociation constant (Ki (μM)) of each compound was calculated from the following equation. Ki=IC50/(1+([C]/Kd) • IC50: Concentration of the compound of the present invention required for 50%-inhibition of [3H]PGE2 specific bond • C: Concentration of [3H]PGE2 • Kd: Dissociation constant of [3H]PGE2

T2 sequence (P08684 whole entry): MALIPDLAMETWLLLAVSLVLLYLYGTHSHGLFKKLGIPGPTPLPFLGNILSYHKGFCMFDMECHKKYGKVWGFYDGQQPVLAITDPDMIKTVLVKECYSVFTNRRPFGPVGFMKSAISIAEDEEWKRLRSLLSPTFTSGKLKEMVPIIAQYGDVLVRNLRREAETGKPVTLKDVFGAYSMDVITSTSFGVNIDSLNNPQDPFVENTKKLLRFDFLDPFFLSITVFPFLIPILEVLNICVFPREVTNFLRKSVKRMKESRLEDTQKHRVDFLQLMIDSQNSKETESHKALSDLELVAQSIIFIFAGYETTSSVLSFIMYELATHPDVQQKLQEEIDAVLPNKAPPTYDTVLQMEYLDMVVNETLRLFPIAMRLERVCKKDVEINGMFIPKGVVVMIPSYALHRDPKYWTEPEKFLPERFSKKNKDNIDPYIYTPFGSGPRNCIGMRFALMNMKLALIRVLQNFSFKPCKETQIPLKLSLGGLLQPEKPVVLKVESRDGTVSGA
T3 sequence (P43116 whole entry): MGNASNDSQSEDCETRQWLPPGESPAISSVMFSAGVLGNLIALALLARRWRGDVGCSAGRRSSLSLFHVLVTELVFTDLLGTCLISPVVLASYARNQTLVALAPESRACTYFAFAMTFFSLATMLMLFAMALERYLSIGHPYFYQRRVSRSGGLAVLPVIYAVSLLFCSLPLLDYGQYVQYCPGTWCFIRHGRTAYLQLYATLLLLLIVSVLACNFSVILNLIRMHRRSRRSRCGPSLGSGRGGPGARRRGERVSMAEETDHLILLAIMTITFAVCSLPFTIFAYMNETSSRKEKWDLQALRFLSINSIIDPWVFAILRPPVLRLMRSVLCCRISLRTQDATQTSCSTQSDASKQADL

Row | IC50 (DP receptor) | IC50 (Human CYP3A4) | Ki [1] | SMILES | binding activity against the DP receptor compared with the non-substituted compound (Comparative compound 1) (DP receptor)
1 | 0.0089 µM | 8.4 µM |  | Cc1cc(OC[C@@H]2CN(C)c3ccccc3O2)cc(C)c1C(=O)Nc1cc(CC(=O)O)ccc1C(F)(F)F [Example 24, (3-((2,6-dimethyl-4-(((2S)-4-methyl-3,4-dihydro-2H-1,4-benzoxazin-2-yl)methoxy)benzoyl)amino)-4-(trifluoromethyl)phenyl)acetic acid] | 
2 |  | < 3 µM |  | Cc1ccc(CC(=O)O)cc1NC(=O)c1c(C)cc(OC[C@@H]2CN(C)c3ccccc3O2)cc1C [Comparative compound 2, (3-((2,6-dimethyl-4-(((2S)-4-methyl-3,4-dihydro-2H-1,4-benzoxazin-2-yl)methoxy)benzoyl)amino)-4-methylphenyl)acetic acid] | more increased binding activity
3 | 0.004 µM | 19.7 µM | 0.0168 µM | Cc1cc(OC[C@@H]2CN(C)c3ccccc3O2)cc(C)c1C(=O)Nc1cc(CC(=O)O)ccc1Cl [Comparative compound 3, (4-chloro-3-((2,6-dimethyl-4-(((2S)-4-methyl-3,4-dihydro-2H-1,4-benzoxazin-2-yl)methoxy)benzoyl)amino)phenyl)acetic acid] | 
4 | 0.0071 µM | ≥ 30 µM | 0.142 µM | Cc1cc(OC[C@@H]2CN(C)c3ccccc3O2)cc(C)c1C(=O)Nc1cc(C2(C(=O)O)CC2)ccc1C(F)(F)F [Example 12, 1-(3-((2,6-dimethyl-4-(((2S)-4-methyl-3,4-dihydro-2H-1,4-benzoxazin-2-yl)methoxy)benzoyl)amino)-4-(trifluoromethyl)phenyl)cyclopropanecarboxylic acid] | 
5 | 0.021 µM | ≥ 30 µM | 0.0936 µM | Cc1cc(OC[C@@H]2CN(C)c3ccccc3O2)cc(C)c1C(=O)Nc1cccc(CC(=O)O)c1 [Comparative compound 1, (3-((2,6-dimethyl-4-(((2S)-4-methyl-3,4-dihydro-2H-1,4-benzoxazin-2-yl)methoxy)benzoyl)amino)phenyl)acetic acid] | 
6 | 0.0029 µM | ≥ 30 µM |  | CCc1cc(OC[C@@H]2CN(C)c3ccccc3O2)cc(C)c1C(=O)Nc1cc(C2(C(=O)O)CC2)ccc1C(F)(F)F [Example 21, 1-(3-((2-ethyl-6-methyl-4-(((2S)-4-methyl-3,4-dihydro-2H-1,4-benzoxazin-2-yl)methoxy)benzoyl)amino)-4-(trifluoromethyl)phenyl)cyclopropanecarboxylic acid] | 

Row | SMILES | IC50 (DP receptor) | IC50 (Human CYP3A4) | Ki [1] | binding activity against the DP receptor compared with the non-substituted compound (Comparative compound 1) (DP receptor)
7 | Cc1cc(OC[C@@H]2CN(C)c3ccccc3O2)cc(C)c1C(=O)Nc1cc(C2(C(=O)O)CC2)ccc1Cl [Comparative compound 4, 1-(4-chloro-3-((2,6-dimethyl-4-(((2S)-4-methyl-3,4-dihydro-2H-1,4-benzoxazin-2-yl)methoxy)benzoyl)amino)phenyl)cyclopropanecarboxylic acid] | 0.0065 µM | ≥ 30 µM | 0.0018 µM | more increased binding activity
